Data from patent US20240101572A1, “DIHYDROOXADIAZINONE COMPOUND AND PHARMACEUTICAL USE THEREOF” (Japan Tobacco Inc., priority 2022, published 2024).
Like-named read-outs stand apart in the source and are kept apart here.

How the values were obtained:
full-length human PLD1 = full-length human PLD1 (Homo sapiens (Human), UniProt Q13393); experiment: Evaluation of human PLD1 enzyme inhibitory activity (Amplex Red / choline oxidase fluorescence); format: biochemical
How it was run: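 N-terminally FLAG-tagged full-length human PLD1 (1-1036), expressed in Expi293F and FLAG-purified, incubated with compound (5% DMSO final) and 1,2-diheptanoyl-sn-glycero-3-phosphocholine for 60 min at room temperature in HEPES pH 7.5 buffer. Released choline detected by Amplex Red/choline oxidase/HRP fluorescence.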

full-length human PLD2 = full-length human PLD2 (Homo sapiens (Human), UniProt O14939); experiment: Evaluation of human PLD2 enzyme inhibitory activity (Amplex Red / choline oxidase fluorescence); format: biochemical
Sequence of full-length human PLD2 (O14939 whole entry): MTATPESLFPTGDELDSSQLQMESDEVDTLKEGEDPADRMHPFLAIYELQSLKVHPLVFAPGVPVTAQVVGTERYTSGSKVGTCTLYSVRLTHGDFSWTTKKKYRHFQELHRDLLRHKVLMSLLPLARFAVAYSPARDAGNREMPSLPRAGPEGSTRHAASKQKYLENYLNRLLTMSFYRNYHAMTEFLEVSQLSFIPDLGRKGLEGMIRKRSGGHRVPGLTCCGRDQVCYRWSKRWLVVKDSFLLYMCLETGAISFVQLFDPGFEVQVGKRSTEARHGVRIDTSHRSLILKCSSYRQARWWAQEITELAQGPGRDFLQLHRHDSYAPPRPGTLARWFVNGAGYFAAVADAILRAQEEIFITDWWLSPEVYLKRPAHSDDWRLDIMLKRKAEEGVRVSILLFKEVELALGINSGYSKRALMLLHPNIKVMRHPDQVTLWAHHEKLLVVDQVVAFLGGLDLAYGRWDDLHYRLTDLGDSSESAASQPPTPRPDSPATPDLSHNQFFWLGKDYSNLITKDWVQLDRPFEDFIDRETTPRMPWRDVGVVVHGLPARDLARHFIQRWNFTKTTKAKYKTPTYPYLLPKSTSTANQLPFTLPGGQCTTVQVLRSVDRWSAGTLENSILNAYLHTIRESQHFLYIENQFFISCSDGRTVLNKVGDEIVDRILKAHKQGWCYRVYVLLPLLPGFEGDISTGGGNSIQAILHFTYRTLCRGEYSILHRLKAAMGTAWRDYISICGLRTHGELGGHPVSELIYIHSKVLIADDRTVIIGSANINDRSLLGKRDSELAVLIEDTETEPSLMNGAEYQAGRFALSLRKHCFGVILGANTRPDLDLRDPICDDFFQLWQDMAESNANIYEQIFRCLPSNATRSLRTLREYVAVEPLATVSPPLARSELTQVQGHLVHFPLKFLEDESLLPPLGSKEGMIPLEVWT
How it was run: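 Enzyme was N-terminal FLAG-tagged full-length human PLD2 (1-933), expressed in Expi293F cells and anti-FLAG purified. Compound (5% DMSO final) was incubated with enzyme (6 nmol/L solution) and 1,2-diheptanoyl-PC (6 mmol/L solution) in HEPES pH 7.5, KCl, EGTA, MgCl2, NP-40, BSA buffer for 60 min at room temperature. Choline was detected with Amplex Red/choline oxidase/HRP.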

[1] = full-length human PLD1 enzyme, read-out: PLD1 IC50
[2] = full-length human PLD2 enzyme, read-out: PLD2 IC50
[3] = column 1 of continuation tables 2-12 to 2-14, read-out: human PLD1 enzyme inhibitory activity IC50
[4] = column 2 of continuation tables 2-12 to 2-14, read-out: human PLD2 enzyme inhibitory activity IC50

Sequence of full-length human PLD1 (Q13393 other isoform, or with tags, fused parts or gaps): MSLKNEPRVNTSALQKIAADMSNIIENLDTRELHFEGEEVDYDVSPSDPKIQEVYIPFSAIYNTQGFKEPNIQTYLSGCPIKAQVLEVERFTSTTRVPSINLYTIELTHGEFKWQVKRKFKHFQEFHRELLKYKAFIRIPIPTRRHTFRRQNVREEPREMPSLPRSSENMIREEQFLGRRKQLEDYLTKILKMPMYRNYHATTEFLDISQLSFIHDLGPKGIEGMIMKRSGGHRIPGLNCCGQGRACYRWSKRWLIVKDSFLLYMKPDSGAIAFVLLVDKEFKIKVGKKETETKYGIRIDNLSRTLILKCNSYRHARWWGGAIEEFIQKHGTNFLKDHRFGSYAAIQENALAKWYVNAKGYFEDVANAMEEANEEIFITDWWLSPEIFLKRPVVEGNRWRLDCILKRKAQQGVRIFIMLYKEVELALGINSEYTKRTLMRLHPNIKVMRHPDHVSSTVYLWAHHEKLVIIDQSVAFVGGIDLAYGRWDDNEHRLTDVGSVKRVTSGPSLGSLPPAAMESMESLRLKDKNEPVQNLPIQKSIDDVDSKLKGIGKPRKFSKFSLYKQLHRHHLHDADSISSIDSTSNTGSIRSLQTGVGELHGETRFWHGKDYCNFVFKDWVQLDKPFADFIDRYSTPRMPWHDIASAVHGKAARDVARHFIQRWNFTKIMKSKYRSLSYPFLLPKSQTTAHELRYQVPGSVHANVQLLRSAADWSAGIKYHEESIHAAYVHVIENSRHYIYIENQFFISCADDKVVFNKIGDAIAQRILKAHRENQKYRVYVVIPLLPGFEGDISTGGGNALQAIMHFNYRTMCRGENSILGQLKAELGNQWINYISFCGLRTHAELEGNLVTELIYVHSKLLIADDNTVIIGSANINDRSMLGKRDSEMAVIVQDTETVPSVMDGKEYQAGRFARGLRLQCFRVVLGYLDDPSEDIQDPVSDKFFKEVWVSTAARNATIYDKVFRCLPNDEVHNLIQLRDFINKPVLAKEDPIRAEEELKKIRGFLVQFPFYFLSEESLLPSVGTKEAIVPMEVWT

Compound | IC50 (full-length human PLD1; [1]) [nM] | IC50 (full-length human PLD2; [2]) [nM] | also measured
CNC(=O)C(=O)N[C@@H](C)C[C@H]1CC[C@]2(CC1)OC(=O)NN=C2c1ccccc1OC(F)(F)F [Example 105] | 27 | 41 | 
CNC(=O)C(=O)N[C@@H](C)C[C@H]1CC[C@]2(CC1)OC(=O)NN=C2c1ccccc1C [Example 119] | 11 | < 10 | 
Cc1cc(C(=O)N[C@@H](C)C[C@H]2CC[C@]3(CC2)OC(=O)NN=C3c2ccccc2Br)[nH]n1 [Example 27] | 14 | 13 | 
C[C@@H](C[C@H]1CC[C@]2(CC1)OC(=O)NN=C2c1cc(C#N)ccc1Br)NC(=O)c1cnn(C)c1 [Example 325] | 15 | < 10 | 
CNC(=O)/C=C\C(=O)N[C@@H](C)CN1CCC2(CC1)OC(=O)NN=C2c1cc(C#N)ccc1Br [Example 2-063] | 173 | 106 | 
C[C@@H](C[C@H]1CC[C@]2(CC1)OC(=O)NN=C2c1ccc(C(C)(C)O)cc1Br)NC(=O)c1cc(Cl)no1 [Example 97] | < 10 | < 10 | 
C[C@@H](CN1CCC2(CC1)OC(=O)NN=C2c1cc(C#N)ccc1Br)NC(=O)c1cc(F)c[nH]1 [Example 302] | 17 | < 10 | 
CNC(=O)C(=O)N[C@@H](C)C[C@H]1CC[C@]2(CC1)OC(=O)NN=C2c1ccc(-c2ccccc2)cc1-c1ccccc1 [Example 73] | 23 | 15 | 
C[C@@H](CC1CCC2(CC1)OC(=O)NN=C2c1ccncc1Br)NC(=O)c1cc(Cl)no1 (mixture of isomers) [Example 121] | < 10 | < 10 | 
Cc1cc(C(=O)N[C@@H](C)CN2CCC3(CC2)OC(=O)NN=C3c2ccc(C#N)cc2C(F)(F)F)[nH]n1 [Example 326] | 54 | 38 | 
CNC(=O)C(=O)N[C@@H](C)C[C@H]1CC[C@]2(CC1)OC(=O)NN=C2c1ccnn1C [Example 68] | 2030 | 4660 | 
C[C@@H](CN1CCC2(CC1)OC(=O)NN=C2c1ccc(F)cc1Cl)NC(=O)c1cc2cc(F)ccc2o1 [Example 91] | 23 | 15 | 
C[C@@H](C[C@H]1CC[C@]2(CC1)OC(=O)NN=C2c1cc(C#N)ccc1Br)NC(=O)c1cc(C2CC2)n[nH]1 [Example 2-069] | < 10 | < 10 | 
C[C@H](NC(=O)c1cnn(C)c1)[C@H](C)[C@H]1CC[C@]2(CC1)OC(=O)NN=C2c1cc(C#N)ccc1Br [Example 339] | 39 | 10 | 
C[C@@H](C[C@H]1CC[C@]2(CC1)OC(=O)NN=C2c1ccc(F)cc1Br)NC(=O)C1CC1c1ccccc1 (single isomer, unassigned) [Example 39] | 93 | 24 | 
[2H]C([2H])([2H])NC(=O)C(=O)N[C@@H](C)C[C@]1(C#N)CC[C@@]2(CC1)OC(=O)NN=C2c1cc(OC(F)F)c(F)cc1Br [Example 2-138] |  |  | IC50 (full-length human PLD1; [3]): 14 nM; IC50 (full-length human PLD2; [4]): < 10 nM
C[C@@H](C[C@H]1CC[C@]2(CC1)OC(=O)NN=C2c1cnc(N2CCOCC2)cc1Cl)NC(=O)N1CCn2nccc2C1 [Example 275] | 25 | < 10 | 
Cc1cc(C(=O)N[C@@H](C)C[C@H]2CC[C@]3(CC2)OC(=O)NN=C3c2ccc(Br)cc2)[nH]n1 [Example 22] | 66 | 49 | 
CNC(=O)C(=O)N[C@@H](C)CN1CCC2(CC1)OC(=O)NN=C2c1ccc(F)cc1Br [Example 179, (S)—N^1-(1-(5-(2-bromo-4-fluorophenyl)-2-oxo-1-oxa-3,4,9-triazaspiro[5.5]undec-4-en-9-yl)propan-2-yl)-N^2-methyloxamide] | 25 | < 10 | 
CNC(=O)C(=O)N[C@@H](C)C[C@H]1CC[C@]2(CC1)OC(=O)NN=C2c1cc(OCC(C)(C)O)ccc1Br [Example 2-014] | 22 | < 10 | 
[2H]C([2H])([C@H](C)NC(=O)c1cnn(C)c1)N1CCC2(CC1)OC(=O)NN=C2c1ccc(F)cc1Br [Example 334] | 26 | < 10 | 
CNC(=O)C(=O)N[C@@H](C)CC1CCC2(CC1)OC(=O)NN=C2c1ccncc1Br (mixture of isomers) [Example 120] | 12 | 11 | 
CNC(=O)C(=O)N[C@@H](C)C[C@H]1CC[C@]2(CC1)OC(=O)NN=C2c1cnc(N2C[C@@H]3C[C@H]2CO3)cc1C [Example 268] | 30 | < 10 | 
CNC(=O)C(=O)N[C@@H](C)C[C@H]1CC[C@]2(CC1)OC(=O)NN=C2c1cccc2c1OCC2 [Example 106] | 26 | 48 | 
[2H]C([2H])([2H])NC(=O)C(=O)N[C@@H](C)C[C@]1(C#N)CC[C@@]2(CC1)OC(=O)NN=C2c1cccc(F)c1Br [Example 2-152] |  |  | IC50 (full-length human PLD1; [3]): 16 nM; IC50 (full-length human PLD2; [4]): < 10 nM

Compound | IC50 (full-length human PLD1; [1]) [nM] | IC50 (full-length human PLD2; [2]) [nM] | also measured
Cc1cc(C(=O)N[C@@H](C)C[C@H]2CC[C@]3(CC2)OC(=O)NN=C3c2cnc(N3CC(F)(F)C3)cc2C)[nH]n1 [Example 273] | 19 | < 10 | 
C[C@@H](CN1CCC2(CC1)OC(=O)N(C(=O)NC1CC1)N=C2c1ccc(F)cc1Br)NC(=O)NC1CC1 [Example 190] | 642 | 776 | 
Cc1cc(C(=O)N[C@@H](C)CN2C[C@H]3CC[C@@H](C2)[C@@]32OC(=O)NN=C2c2ccc(F)cc2Cl)[nH]n1 [Example 197] | 26 | < 10 | 
CNC(=O)C(=O)N[C@@H](C)[C@H](C)N1CCC2(CC1)OC(=O)NN=C2c1ccc(F)cc1Br [Example 289] | 18 | < 10 | 
CNC(=O)C(=O)N[C@@H](C)CN1CCC2(CC1)OC(=O)NN=C2c1cc(C(=O)N(C)C)ccc1Br [Example 2-038] | 60 | 11 | 
CNC(=O)C(=O)N[C@@H](C)C[C@H]1CC[C@]2(CC1)OC(=O)NN=C2c1cnccc1Br [Example 151] | 18 | < 10 | 
C[C@H](O)C(=O)N[C@@H](C)C[C@H]1CC[C@]2(CC1)OC(=O)NN=C2c1ccc(F)cc1Br [Example 29] | 999 | 1720 | 
Cc1cc(C(=O)N[C@@H](C)CN2CC[C@@]3(C[C@H]2C)OC(=O)NN=C3c2ccc(C#N)cc2Cl)[nH]n1 [Example 232] | 2580 | 2130 | 
C[C@@H](C[C@H]1CC[C@]2(CC1)OC(=O)NN=C2c1ccc(S(C)(=O)=O)cc1)NC(=O)c1cc2cc(F)ccc2[nH]1 [Example 8] | 30 | 10 | 
CNC(=O)C(=O)N[C@@H](C)CN1CCC2(CC1)OC(=O)NN=C2c1cccc(C(F)(F)F)c1Br [Example 2-051] | 25 | < 10 | 
Cc1cc(C(=O)N[C@@H](C)C[C@H]2CC[C@]3(CC2)OC(=O)NN=C3c2cnc(C3CC3)cc2Cl)[nH]n1 [Example 266] | 15 | < 10 | 
[2H]C([2H])([2H])NC(=O)C(=O)N[C@@H](C)C[C@]1(C#N)CC[C@@]2(CC1)OC(=O)NN=C2c1ccccc1Br [Example 2-164] |  |  | IC50 (full-length human PLD1; [3]): < 10 nM; IC50 (full-length human PLD2; [4]): < 10 nM
CNC(=O)C(=O)N[C@@H](C)C[C@H]1CC[C@]2(CC1)OC(=O)NN=C2c1ccc(F)cc1C(C)C [Example 133] | 29 | 31 | 
CC(=O)N[C@@H](C)C[C@H]1CC[C@]2(CC1)OC(=O)NN=C2c1ccc(OC(F)F)cc1Br [Example 141] | 141 | 164 | 
CNC(=O)C(=O)N[C@H](C)C[C@H]1CC[C@@]2(CC1)OC(=O)NN=C2c1cc(C#N)ccc1Br [Example 2-150] |  |  | inhibition at 10 µM (full-length human PLD1; read-out: human PLD1 % inhibition at 10 μM): 25%; inhibition at 10 µM (full-length human PLD1; read-out: inhibition rate of PLD1 at 10 μM compound): 25%; inhibition at 10 µM (full-length human PLD2; read-out: human PLD2 % inhibition at 10 μM): 30%; inhibition at 10 µM (full-length human PLD2; read-out: inhibition rate of PLD2 at 10 μM compound): 30%
C[C@@H](CN1CCC2(CC1)OC(=O)NN=C2c1ccc(F)cc1Cl)NC(=O)c1cc(Cl)no1 [Example 92] | 26 | 13 | 
C[C@@H](C[C@H]1CC[C@]2(CC1)OC(=O)NN=C2c1ccc(S(C)(=O)=O)cc1Cl)NC(=O)c1cc2ccccc2o1 [Example 53] | 19 | < 10 | 
C[C@@H](C[C@H]1CC[C@]2(CC1)OC(=O)NN=C2c1ccc(F)cc1Cl)NC(=O)c1cc2cc(S(C)(=O)=O)ccc2[nH]1 [Example 62] | 140 | 223 | 
[2H]C([2H])([2H])NC(=O)C(=O)N[C@@H](C)CN1CCC2(CC1)OC(=O)NN=C2c1cc(C#N)ccc1Br [Example 2-001] | 41 | < 10 | 
COc1cc(C)c(C2=NNC(=O)O[C@]23CC[C@@H](C[C@H](C)NC(=O)N2CCc4cccnc4C2)CC3)cn1 [Example 258] | 186 | 249 | 
[2H]C([2H])([2H])NC(=O)C(=O)N[C@@H](C)C[C@]1(C#N)CC[C@@]2(CC1)OC(=O)NN=C2c1ccc(F)cc1Br [Example 2-134] |  |  | IC50 (full-length human PLD1; [3]): 18 nM; IC50 (full-length human PLD2; [4]): < 10 nM
Cc1cc(C(=O)N[C@@H](C)CN2CCC3(CC2)OC(=O)NN=C3c2ccc(C#N)cc2Br)[nH]n1 [Example 207] | 25 | < 10 | 
C[C@@H](CN1CCC2(CC1)OC(=O)NN=C2c1cc(C#N)ccc1Br)NC(=O)C1CCCO1 (mixture of isomers) [Example 2-048] | 644 | 1010 | 
CNC(=O)C(=O)N[C@@H](C)C[C@H]1CC[C@]2(CC1)OC(=O)NN=C2c1cc(OCC(F)(F)F)ccc1Br [Example 296] | 13 | < 10 | 
